Here are results for 58 substances from patent US20190359653A1, “SELECTIVE PEPTIDE INHIBITORS OF FRIZZLED” (Genentech, Inc., priority 2016, published 2019).

The test relates to Herceptin. The experiment in a line: spot phage ELISA against Herceptin (off-target). The format is binding. Conditions: for HERCEPTIN S/W: signal minus noise (BSA); for HERCEPTIN S/W / HERCEPTIN S/N: Table 5; for HERCEPTIN S/N: signal to noise ratio; for SIGNAL: NOISE RATIO HERCEPTIN: spot phage ELISA signal against Herceptin over ELISA signal against BSA, Tables 3 and 4. How it is done: Phage pools of linear peptide libraries (Stanger, K. et al. Allosteric peptides bind a caspase zymogen and mediate caspase tetramerization. Nat Chem Biol 8, 655-660 (2012)) were cycled through rounds of binding selections with hFZD7 CRD-Fc following standard protocols (Tonikian et al. (2007) Nat Protoc 2, 1368-1386). Herceptin (10 μM) was included in sorting solution to block potential Fc binders during all rounds of sorting. After four rounds of binding selection, individual phage clones were analyzed in a high-throughput spot phage ELISA using plate-immobilized FZD7 CRD-Fc as target or off-target for specificity test (hFZD8 CRD-Fc and Herceptin). To measure off-target affinity, duplicate phage particle were assayed against BSA to measure non-specific binding. Clones with a phage-binding signal >0.5 and signal-to-noise ratio >10 were considered to be positive clones and were subjected to DNA sequence analysis. General data handling was done using Microsoft Excel 2010 unless otherwise noted.
In order to investigate the role of FZD7 in intestinal stem cell function, experiments were performed to identify ligands that selectively bind FZD7 CRD. A naïve linear peptide library (4-16 amino acids in length) and a cyclic peptide library were screened via phage display against FZD7 CRD-Fc. Peptides found to bind FZD7 CRD-Fc were then screened via spot phage ELISA against FZD7 CRD-Fc, FZD8 CRD-Fc, and Herceptin to identify candidates that bind FZD7 CRD but not FZD8 CRD or herceptin. The amino acid sequences of candidate FZD7 CRD-binding linear peptides are shown in Table 3 below, and the amino acid sequences of candidate FZD7 CRD-binding cyclic peptides are shown in Table 4.
Briefly, sixty Fz7-21-derived peptides (see Table 5), each containing at least one random alanine and/or valine/and/or aspartic acid and/or serine substitution, were generated and screened via spot phage ELISA (i.e., as described above) against FZD7 CRD-Fc and Herceptin.

84 (LPADDLAAWCHVMY) [compound 84]: the “HERCEPTIN S/W” value is 0.0 and the “HERCEPTIN S/N” value was 1.4.
Taken in the same sequence, the figures for 92 (LPADDLAFWCDVMY) [compound 92] were 0.0 and 0.7.
For the substance 35 (TSDFSWCLSWCDLIFW) [compound 35], the “SIGNAL: NOISE RATIO HERCEPTIN” value turned out to be 1.19.
As to 69 (VPSADLESWCHVMY) [compound 69], the “HERCEPTIN S/W” value was determined as 0.0 and the “HERCEPTIN S/N” value is 1.6.
Taken in the same sequence, the figures for 87 (AAADDVASWCHVMY) [compound 87] were 0.0 and 1.3.
Take 76 (VPSDDLEAWCDVMY) [compound 76]: the “HERCEPTIN S/W” value is 0.0 and the “HERCEPTIN S/N” value is 1.3.
Regarding 67 (VPADDLAFWCHVMY) [compound 67], the “HERCEPTIN S/W” value is 0.0 and the “HERCEPTIN S/N” value is on record as 1.3.
On to 45 (APADDLEAWCHVMY) [compound 45], for which the “HERCEPTIN S/W” value is listed as 0.0 and the “HERCEPTIN S/N” value came out at 1.2.
With 32 (SSDFSGCLSWCDLIFG) [compound 32], the “SIGNAL: NOISE RATIO HERCEPTIN” value was 1.22.
Turning to 62 (VASDDLASWCHAMY) [compound 62], the “HERCEPTIN S/W” value is 0.0 and the “HERCEPTIN S/N” value is 1.3.
As for 20 (FLPDQHSHLFLPWGEP) [compound 20], the “SIGNAL: NOISE RATIO HERCEPTIN” value was 1.1.
Same read-out and setting: then 38 (HLSDVFCSDWCDLVFW) [compound 38], with 1.14.
In the case of 96 (APADDLESWCHVMY) [compound 96], the “HERCEPTIN S/W” value was found to be 0.1 and the “HERCEPTIN S/N” value was determined as 2.1.
As for 63 (VPADDLASWCHVMY) [compound 63], the “HERCEPTIN S/W” value came out at 0.0 and the “HERCEPTIN S/N” value is reported as 1.2.
With 54 (AAADDLEVWCHVMY) [compound 54], the “HERCEPTIN S/W” value was found to be 0.0 and the “HERCEPTIN S/N” value turned out to be 1.4.
95 (VPSDDLEFWCAVMY) [compound 95]: the “HERCEPTIN S/W” value is listed as 0.0 and the “HERCEPTIN S/N” value worked out at 1.2.
Take 27 (NPPPECFLSK) [compound 27]: the “SIGNAL: NOISE RATIO HERCEPTIN” value is listed as 1.2.
Take 55 (VAADALEFWCHVMY) [compound 55]: the “HERCEPTIN S/W” value is given as 0.0 and the “HERCEPTIN S/N” value was found to be 1.3.
57 (AAADDLAAWCDVMY) [compound 57]: the “HERCEPTIN S/W” value was 0.0 and the “HERCEPTIN S/N” value was determined as 1.4.
Turning to 22 (VFVPFSELTSLC) [compound 22], the “SIGNAL: NOISE RATIO HERCEPTIN” value came out at 1.1.
3 (PQDLLDWCHYMIVSSD) [compound 3]: the “SIGNAL: NOISE RATIO HERCEPTIN” value was determined as 1.2.
As for 49 (AASDDLAAWCHVMY) [compound 49], the “HERCEPTIN S/W” value was found to be 0.0 and the “HERCEPTIN S/N” value is listed as 1.8.
For the substance 37 (FDFCSVMPHFIYCPGD) [compound 37], the “SIGNAL: NOISE RATIO HERCEPTIN” value is 1.10.
Take 58 (VASDDLEFWCHVMY) [compound 58]: the “HERCEPTIN S/W” value amounted to 0.0 and the “HERCEPTIN S/N” value is recorded as 1.3.
On to 30 (LSSGKKVSSYWFNFWF) [compound 30], for which the “SIGNAL: NOISE RATIO HERCEPTIN” value came to 3.8.
For the substance 25 (EHDLLLRAMNSFVLIF) [compound 25], the “SIGNAL: NOISE RATIO HERCEPTIN” value amounted to 1.4.
On to 29 (ERRVCYPWFEVSQP) [compound 29], for which the “SIGNAL: NOISE RATIO HERCEPTIN” value was 1.3.
With 43 (APADDVEFWCHVMY) [compound 43], the “HERCEPTIN S/W” value is listed as 0.0 and the “HERCEPTIN S/N” value was determined as 1.8.
47 (VASDDLEAWCHVMY) [compound 47]: the “HERCEPTIN S/W” value stood at 0.0 and the “HERCEPTIN S/N” value is 1.4.
For 75 (APSDDLEAWCDVMY) [compound 75], the “HERCEPTIN S/W” value is reported as 0.0 and the “HERCEPTIN S/N” value was determined as 1.3.
For the substance 48 (AAADDLEFWCHVMY) [compound 48], the “HERCEPTIN S/W” value turned out to be 0.0 and the “HERCEPTIN S/N” value worked out at 1.2.
On to 66 (VPADALAVWCDVMY) [compound 66], for which the “HERCEPTIN S/W” value is reported as 0.0 and the “HERCEPTIN S/N” value stood at 1.3.
Turning to 46 (APSDDLEFWCHAMY) [compound 46], the “HERCEPTIN S/W” value was found to be 0.0 and the “HERCEPTIN S/N” value was found to be 1.3.
Turning to 80 (AAADDLAFWCHVMY) [compound 80], the “HERCEPTIN S/W” value turned out to be 0.0 and the “HERCEPTIN S/N” value is recorded as 1.4.
Consider 50 (AASDDLESWCHVMY) [compound 50], for which the “HERCEPTIN S/W” value is given as 0.0 and the “HERCEPTIN S/N” value was determined as 1.2.
For 97 (APSDDLAFWCHVVY) [compound 97], the “HERCEPTIN S/W” value turned out to be 0.1 and the “HERCEPTIN S/N” value was 2.1.
6 (DTDLHQWCLWFT) [compound 6]: the “SIGNAL: NOISE RATIO HERCEPTIN” value worked out at 1.1.
As to 8 (FELLLDLGDLIRLW) [compound 8], the “SIGNAL: NOISE RATIO HERCEPTIN” value amounted to 1.8.
Consider 12 (PPNVHEGCWSMFPW) [compound 12], for which the “SIGNAL: NOISE RATIO HERCEPTIN” value came out at 1.1.
Take 24 (NAFWRDQCLEWFIICL) [compound 24]: the “SIGNAL: NOISE RATIO HERCEPTIN” value is listed as 1.2.
With 59 (AAADDLEAWCAVMY) [compound 59], the “HERCEPTIN S/W” value amounted to 0.0 and the “HERCEPTIN S/N” value came out at 1.2.
With 53 (LPSDDLESWCHVMY) [compound 53], the “HERCEPTIN S/W” value turned out to be 0.0 and the “HERCEPTIN S/N” value came to 1.2.
In the case of 78 (VPADDLASWCDVMY) [compound 78], the “HERCEPTIN S/W” value is recorded as 0.1 and the “HERCEPTIN S/N” value is given as 1.9.
Take 98 (AAADDLAAWCHVVY) [compound 98]: the “HERCEPTIN S/W” value worked out at 0.1 and the “HERCEPTIN S/N” value is given as 2.2.
As to 65 (VPSDDLAFWCHVMY) [compound 65], the “HERCEPTIN S/W” value is listed as 0.0 and the “HERCEPTIN S/N” value was determined as 1.3.
As for 72 (APADDLEFWCHVMY) [compound 72], the “HERCEPTIN S/W” value was found to be 0.0 and the “HERCEPTIN S/N” value is 1.2.
On to 9 (ACSYVIDLWNLCLR) [compound 9], for which the “SIGNAL: NOISE RATIO HERCEPTIN” value came out at 1.3.
With 64 (APADDLEFWCHVVY) [compound 64], the “HERCEPTIN S/W” value came out at 0.0 and the “HERCEPTIN S/N” value is given as 1.4.
With 34 (HLSDVCCSDWCDLVFW) [compound 34], the “SIGNAL: NOISE RATIO HERCEPTIN” value is reported as 0.99.
Take 60 (LAADDLESWCHVMY) [compound 60]: the “HERCEPTIN S/W” value was 0.0 and the “HERCEPTIN S/N” value came to 1.2.
With 39 (VAADDLAAWCHVMY) [compound 39], the “HERCEPTIN S/W” value is recorded as 0.0 and the “HERCEPTIN S/N” value is given as 1.4.
Turning to 36 (FDFCTVMPHFIYCPGD) [compound 36], the “SIGNAL: NOISE RATIO HERCEPTIN” value came out at 1.13.
As to 82 (LPAADLAAWCHVMY) [compound 82], the “HERCEPTIN S/W” value is 0.0 and the “HERCEPTIN S/N” value is listed as 1.2.
4 (ACSYVIDLWNQCLT) [compound 4]: the “SIGNAL: NOISE RATIO HERCEPTIN” value is reported as 1.1.
For 90 (APADDLAFWCDVMY) [compound 90], the “HERCEPTIN S/W” value is 0.0 and the “HERCEPTIN S/N” value was found to be 0.9.
Taken in the same sequence, the figures for 74 (APADDLAFWCHVVY) [compound 74] were 0.0 and 1.3.
For the substance 44 (APSDDLEFWCHVMY) [compound 44], the “HERCEPTIN S/W” value is recorded as 0.0 and the “HERCEPTIN S/N” value was found to be 1.3.
Taken in the same sequence, the figures for 86 (VASDDLASWCHVVY) [compound 86] were 0.0 and 1.2.
